Results published in patent US20260240999A1, “METHODS FOR EX VIVO ENRICHMENT AND EXPANSION OF TUMOR REACTIVE T CELLS AND RELATED COMPOSITIONS THEREOF” (H. LEE MOFFITT CANCER CENTER AND RESEARCH INSTITUTE, INC., priority 2022, published 2026).
Entries after “also recorded” stand apart in the source; their conditions may differ. Residues, ends and D or L forms follow the SMILES beside them. *: point of attachment. Cbz = O=C(OCc1ccccc1)*; CH2F = FC*

Columns and labels:
[1] = system: PBMC from three healthy donors; test: T cell expansion with Fas ligand or caspase inhibition, anti-CD3 stimulation; type: cell-based, human; conditions: OKT3 activation
Experimental: (§1) Cells were then seeded into a 24-well gas permeable cell culture plate at a density of 2.14×10^5 cells/mL (7.5×10^5 cells/cm^2). Cells were activated for 48 hours using 50 ng/ml OKT3, a human anti-CD3 monoclonal antibody, and were additionally treated with agents as described below.
Culture wells were assigned to one of five treatment groups, as follows: (1) a no inhibitor culture control which contained only cellular media as described with no additional apoptotic modulator; (2) 2 μM of the pan-caspase inhibitor Z-VAD-FMK added to the media only on culture day 0 (transient); (3) 2 μM of the pan-caspase inhibitor Z-VAD-FMK added on culture day 0 and additionally replenished at the same concentration with each media exchange (continuous); (4). 500 ng/ml of Fas ligand (FasL) blocking antibody NOK-1 (BioLegend) added to the culture media only on day 0 (transient); or (5) 500 ng/ml of Fas ligand (FasL) blocking antibody NOK-1 (BioLegend) added to the culture media […] replenished each media exchange (continuous inhibition).
Cultures were maintained for at least 13 days with a 50% media exchange every other day beginning on culture day 2. Cell counts and viability were monitored every other day. […]

[2] = system: PBMC from two healthy donors; test: T cell expansion with Fas ligand or caspase inhibition, anti-CD3/anti-CD28 stimulation; type: cell-based, human; conditions: continuous anti-CD3/anti-CD28 activation
Experimental: Cells were then seeded into a 24-well gas permeable cell culture plate at a density of 1.5×10^5 cells/mL (5.0×10^5 cells/cm^2).
Culture wells were assigned to one of two treatment groups, transient or continuous activation. For transient activation, anti-CD3/anti-CD28 paramagnetic beads (Dyanbeads™) were added to the culture media at a ratio of 1 bead per cell starting on culture day 0, and then were removed during media exchange on day 2. For continuous activation, anti-CD3/anti-CD28 paramagnetic beads (Dyanbeads™) were added to the culture media at a ratio of 1 bead per cell starting on culture day 0, and then added again on Day 4, and again on Day 6 at a ratio of 1 bead per cell. The anti-CD3/anti-CD28 paramagnetic beads were not removed on Day 2, 4 or 6.
For both the continuous and transient activation, culture wells were assigned to one of five treatment groups as described above for 10 conditions total per donor.
Cell counts and viability were monitored every other day. When cells reached 3×10^6 cells/ml, 1.5×10^6 cells were sub-cultured into a new well of a 24-well gas permeable culture plate with 7 mL final volume of medium and the culture continued as described above.

[3] = system: CRC tumor fragment and SCS cultures; test: Caspase inhibition in tumor processing; type: cell-based, human
Experimental: Half of cultures contained media additionally supplemented with 2 μM of pan-caspase inhibitor Z-VAD-FMK which was replenished at each media exchange. Cultures were incubated at about 37° C. for a minimum of 18 days with a 50% medium exchange occurring every 2-3 days following culture day 5. Cell counts were performed on day 5 and at each medium exchange using the NC-200 Automated Cell Counter (ChemoMetec).

[4] = system: previously expanded human T cells from three healthy donors; test: Effect of T cell adjuvants on T cell viability (total viable CD3+ cell count); type: cell-based; conditions: for viable cell counts: vs DMSO treatment control, irrespective of activation status, 6 days
Experimental: Cells were expanded from PBMC derived from Ficoll gradient separation from three healthy donor's apheresis material. […] Because the studies were carried out in healthy donors, stimulation of the T cells was carried out with anti-CD3 (OKT3) stimulation in order to mimic conditions present in the tumor microenvironment (TME).
Cells were next seeded into gas permeable 100M culture vessels and expanded for 7-14 days to achieve a large bank of T cells, and cryopreserved. […] Half of wells were additionally supplemented with 50 ng/mL OKT3, a human anti-CD3 monoclonal antibody. In total, 15 test adjuvant agents were tested for their impact on cell viability in the presence and absence of anti-CD3 activation (see Table E3). Cells were cultured for 6 days total, including a 50% medium exchange on culture day 3, and monitored for total viable CD3+ cell count.

[5] = system: previously expanded human T cells from three healthy donors; test: Cytokines, modulators and agonist antibodies with IL-2 on T cell number and memory phenotype; type: cell-based
Experimental: PBMC from three healthy donors were activated, expanded, and cryopreserved as described in Example 11. […] As previously described, stimulation of the healthy donor T cells prior to cryopreservation were carried out with anti-CD3 (OKT3) stimulation in order to mimic conditions present in the tumor microenvironment (TME).
Cells were next seeded into gas permeable 100M culture vessels and expanded for 7-14 days to achieve a large bank of T cells, and cryopreserved.
Cells were maintained in culture for 6 days, with a 50% medium exchange occurring at 3 days post culture initiation.
At the end of the culture period for all culture conditions, cells were assessed for cell count and sub-phenotypes of naïve and central memory T cells by flow cytometry by staining with CD45RA and CCR7 (naïve, CD45RA+ CCR7+; “central” memory, CD45RA-CCR7+).

[6] = system: T-cells from three healthy donors; test: Post-stimulation CD4+ and CD8+ activation markers by flow cytometry; type: cell-based, human; conditions: 50 ng/ml OKT3 vs no OKT3, 48 hours, CD38, CD39, CD134, CD137, CD69, CD90
Experimental: Specific markers of activation on the CD4+ and CD8+ cell populations were measured using flow cytometry over a time course of 3-48 hours. Specifically, the following markers were assessed: CD38 and CD39 (FIG. 12A and FIG. 13A), CD134 and CD137 (FIG. 12B and FIG. 13B), and CD69 and CD90 (FIG. 12C and FIG. 13C).

[7] = system: cells processed from melanoma tumor fragments; test: Anti-CD3 stimulation on expansion of tumor-derived cells; type: cell-based, human; conditions: presence or absence of 50 ng/mL OKT3; 14-31 days
Experimental: Cells processed from melanoma tumor fragments as described in Examples 1 and 2, were cultured in the presence or absence of 50 ng/mL OKT3, a human anti-CD3 monoclonal antibody. Cell cultures were carried out to between 14 and 31 days, such as between 14 and 21 days, in either a conventional 6-well plate or a gas permeable culture plate with RPMI or OpTmizer media. […] About 50% of cellular media was exchanged every other day beginning on the 5th day of culture as described previously. Cells were then counted using the NC-200 Automated Cell Counter (Chemometec).

[8] = system: PBMC from two healthy donors; test: Checkpoint modulators and costimulatory agonist antibodies on T cell phenotype; type: cell-based, human
Experimental: as §1, with “5.0×10^5 cells/cm^2.” for “2.14×10^5 cells/mL (7.5×10^5 cells/cm^2).”, “below. Following 48 hours in culture, cells were analyzed for phenotype.” for “below.”
Cells were divided into 6 treatment groups, as follows: Ipilimumab (anti-CTLA4), Pembrolizumab (anti-PD1), Tavolixizumab (anti-TNFRSF4), Urelumab (anti-CD137), and Varlilumab (anti-CD27), as well as a no added agent control. For all test groups, cells in each treatment group were cultured in the presence of the monoclonal antibodies at 0.5, 1, 10, or 20 μg/mL.
None of the tested antibodies appeared to affect the memory differentiation state of the T cells. T cell phenotype was assessed for CD4+ and CD8+ cells independently via flow cytometry for markers of activation OX40, 41BB, CD107a, and PD1. Results are shown in FIG. 38 (CD3+), FIG. 39 (CD4+) and FIG. 40 (CD8+).

[9] = cytokine plus 300 IU/mL IL-2 vs IL-2 alone
[10] = on CD3+, CD4+ and CD8+ T cells, higher concentrations

## COC(=O)C[C@H](NC(=O)[C@H](C)NC(=O)[C@@H](NC(=O)OCc1ccccc1)C(C)C)C(=O)CF [Z-VAD-FMK, carbobenzoxy-valyl-alanyl-aspartyl-[O-methyl]-fluoromethylketone] (Cbz-Val-Ala-Asp(OMe)-CH2F)
[1]; continuous inhibition (replenished each media exchange)
  cell growth (total cell number): showed the greatest cell growth across donors
[1]; transient treatment (day 0 only)
  cell growth (total cell number): grew similarly
[2]; inhibitor continuous, listed as caspase inhibitor
  total viable cell number and viability: outperformed the other conditions; also recorded: outperforming the transient condition
[2]; inhibitor transient
  total viable cell number and viability: outperformed the other conditions
[3]; SCS culture, 2 μM
  cell viability: Cell viability was similarly high
  outgrowth of T cells: outgrowth of T cells was not observed for the SCS conditions
[3]; tumor fragment-derived culture, 2 μM
  cell viability: cell viability for this condition was also high
[3]; tumor fragment-derived culture, 2 μM replenished at each media exchange
  outgrowth of cells (fold expansion, total viable cells): outgrowth of cells was superior in the tumor fragment-derived condition containing the pan-caspase inhibitor
[4]
  viable cell counts: consistently higher viable cell counts than the DMSO treatment control
[5]; concentrations higher than 0.2 μg/mL, vs IL-2 alone
  number of CD3+ cells/mL on Day 6: substantially increased the number of CD3+ cells/mL on Day 6
[5]; vs cultures expanded just with IL-2
  percent of naïve and central memory T cells: had no effect on the percent of naïve and central memory T cells

## IL-15: recombinant cytokine
[4]; 62.5 IU/ml-1000 IU/ml
  dose response of cell number: dose dependent response, wherein cell number increased with increasing concentration
[5]; cytokine plus 300 IU/mL IL-2
  percent naïve and central memory T cells at Day 6: measured increase in the percent naïve and central memory T cells
[5]; [9]
  CD3+ cells/mL on Day 6: increase in CD3+ cells/mL on Day 6

## IL-21: recombinant cytokine
[5]; cytokine plus 300 IU/mL IL-2
  percent naïve and central memory T cells at Day 6: measured increase in the percent naïve and central memory T cells
[5]; [9]
  CD3+ cells/mL on Day 6: increase in CD3+ cells/mL on Day 6

## OKT3: a human anti-CD3 monoclonal antibody
[6]; highest for CD38, CD134, CD69
  upregulation of activation markers on CD8+ T cells: all assessed markers were upregulated to some extent
[6]; highest for CD38, CD137, CD69
  upregulation of activation markers on CD4+ T cells: all assessed markers were upregulated to some extent
[7]
  total cell number and fold expansion: supported T cell expansion, but did not substantially impact total cell number; also recorded: observed to be largely similar

## Oxelumab: anti-OX40L antibody
[4]
  viable cell counts: consistently higher viable cell counts than the DMSO treatment control
[5]; antibody plus IL-2 vs IL-2 alone, MK-1248 at highest concentration tested
  percent naïve and central memory T cells at Day 6: little effect on the percent of naïve and central memory T cells
[5]; highest concentration tested, 50 μg/mL, vs IL-2 alone
  CD3+ cells/mL on Day 6: increase in CD3+ cells/mL on Day 6

## Pembrolizumab: anti-PD1 antibody
[8]; on CD4 T cells
  PD1 expression: decreased PD1 expression
[4]
  viable cell counts: consistently higher viable cell counts than the DMSO treatment control

## Urelumab: an agonist CD137 receptor antibody
[8]; on CD4 T cells and CD8+ T cells
  41BB expression: promoted 41BB expression

## Varlilumab: an agonist anti-CD27 antibody
[8]; [10]
  41BB expression: promoted 41BB and CD107a expression
  CD107a expression: promoted 41BB and CD107a expression
